From patent publication US9421173B2, “Nano delivery systems for siRNA” (YISSUM RESEARCH DEVELOPMENT COMPANY OF THE HEBREW …, priority 2011, dated 2016)

Assays:
Format in all cases: physicochemical
[1] = Encapsulation efficacy of siRNA in crosslinked HSA NSs (Trypsin digestion, RP-HPLC); details: 200 μg siRNA
Protocol: For encapsulation of siRNA inside crosslinked HSA NSs, siRNA was added to HSA solution prior the addition of desolvating phase. The rest of procedure was made exactly in the same manner detailed above, when instead of using DDW, RNAse free water (RNFW) was used. After crosslinking, the NSs were washed and the total ultrafiltrate was collected, lyophilized and reconstituted with 500 μl RNFW, from which, 160 ul were injected to HPLC. Since partial degradation of free siRNA in the ultrafiltrate was observed, the preferred way to determine siRNA content in the NSs is to directly determine siRNA content in the particle (after its digestion), and not based on the free siRNA (un-encapsulated) in the ultrafiltrate.
The total weight of HSA per 100 μl of suspension (after wash) was quantified gravimetrically. Then 1-2 mg of washed HSA NPs encapsulating siRNA was diluted to 1 ml with RNase free PBS buffer (adjusted to pH=7.5 using 0.5 M NaOH solution) and digested with 20 to 150 μg Trypsin for 60, 90 or 180 min, at dark and under mild shaking at 37° C., till a clear solution was formed. In case sample containing DOTAP, Heparin (90 μg) was added to the aqueous phase, 0 or 60 min after the addition of Trypsin. The free siRNA quantity was determined using RP-HPLC, in the presence of Trypsin or without it.
In order to determine the encapsulation efficacy of siRNA in the crosslinked HSA NSs, the washed NSs were digested with Trypsin till a clear solution was formed and the total siRNA content was detected using RP-HPLC and calculated based on AUC. According to the protocol we have developed in our lab (for detailing see section E), the reliability of such method in quantification the released siRNA, is highly efficient (FIGS. 5-6). A few trends can be concluded; In the presence of DOTAP, the best encapsulation (˜40%) accepted at the low basic pH (pH 8 and 7). At pH 9, removal of the DOTAP from NSs, have reduced encapsulation efficacies. This effect is more pronounced when the non cholesterol modified siRNA (GFP-siRNA) is used.

[2] = Integrity evaluation of siRNA extracted from crosslinked HSA NSs and from NCs (HPLC, PAGE 8%); details: compared with untreated siRNA
Protocol: FIGS. 17A-17B are gel retardation assays (PAGE 8%) for evaluation of extracted siRNA. Integrity evaluation was made for GFP-siRNA (FIG. 17A) and Chol-GFP-siRNA (FIG. 17B). Lane No. 1—ladder, Lane No. 2—control with 100 ng of untreated siRNA. Lanes 3-8 with siRNA extracted from primal crosslinked HSA NSs (produced in different pH conditions), Lanes 9 and 10, with siRNA extracted from NCs loaded with the primal crosslinked HSA.
(§1) For siRNA integrity (stability) evaluation 8% (19:1) native polyacrylamide gels (PAGE) was used. Electrophoresis was carried out at 200V for 50 min, in Tris-Borate-EDTE (TBE) as running buffer. For siRNA staining, 0.01% of EtBr was used. Gels were visualized under a UV transilluminator.
Later, siRNAs were extracted from the primal crosslinked HSA NSs (produced in different pH conditions), and their integrity was assessed using HPLC (data not shown) and gel retardation assay (PAGE 8%) (FIG. 17). Furthermore, the stability of siRNAs extracted from NCs loaded with the primal crosslinked HSA was also examined ([…]—lanes No. 9 & 10), since secondary encapsulation process performed under heat (Tin is 50° C.), using the nano spray drying technique. […] Based on the HPLC results, the exact amount of encapsulated siRNA was determined. […]

[3] = Integrity evaluation of free siRNA exposed to pH 7, 8, 9 with or without glutaraldehyde (HPLC, PAGE 8%); details: for integrity of free siRNA in the presence of the cross linker (glutaraldehyde): 3 hr, all the pH tested (7, 8, 9), 'heavy' specie runs slower at the gel
Protocol: FIGS. 16A-16B are gel retardation assays (PAGE 8%) for evaluation of free siRNA integrity after exposure to different conditions. Integrity evaluation was made for GFP-siRNA (FIG. 16A) and Chol-GFP-siRNA (FIG. 16B). Lane No. 1—ladder, Lane No. 2, 3—controls with 100 and 50 ng of untreated siRNA respectively. Lanes 4, 6 and 8, with siRNA exposed to pH 7, 8 and 9, respectively. Lanes 5, 7 and 9, with siRNA exposed to pH 7, 8 and 9 in the presence of glutaraldehyde (0.014% (v/v)), respectively.
as §1
During the primal encapsulation process of siRNA in the HSA NSs it has been exposed to materials with distractive potential such as basic pH conditions and the presence of cross linker (glutaraldehyde) who can interact with the primal amine present in the nucleic bases: Guanine, Adenine or Cytosine. Hens, the need in siRNA integrity evaluation arise. First, integrity evaluation of the free siRNA (GFP-siRNA and Chol-GFP-siRNA) was made. The siRNAs were exposed to the same conditions used for production of crosslinked HSA NSs (3 hr at aqueous solutions with pH of 7, 8 or 9 with or without the presence of glutaraldehyde), then a fraction from each sample was analyzed using HPLC (data not shown) and gel retardation assay (PAGE 8%) (FIG. 16).

[4] = Melting point measurements for siRNAs (UV 260 nm); details: buffer 48 mM Tris, 96 mM NaCl, pH 7.1
Protocol: Melting point measurements for different siRNAs (21-mer) used were performed on a UV-visible spectrophotometer (Cary 300) at 260 nm, by elevating the sample temperature from 20° C. to 85° C. at rate of 1° C./min. All siRNAs were dissolved in buffer (48 mM Tris, 96 mM NaCl, pH 7.1) to obtain a concentration of 4-10 ng/μl.
The temperature at which the 50% of siRNA strands are denatured is called the melting temperature, or Tm. The Tm for various siRNAs (21 mers) used in our research, was measured and found to be: 78, 77 and 72° C. for GFP-siRNA, Chol-GFP-siRNA and EGFR-siRNA, respectively. With all examined siRNAs, beginning of separation was already observed at 60° C. (data not shown).

GFP-siRNA: Anti Green Fluorescent Protein siRNA, 21 bp, MW 14,352 Da, SEQ ID NO: 5 and 6, provided by Roche (chain 1 AUAUCAUGGCCGACAAGCATT; chain 2 UGCUUGUCGGCCAUGAUAUTT; chemistry not fully specified)
% encapsulation ([1]; pH 7, with 0.03 mg DOTAP): 43% | Encapsulated is RNA ([1]; pH 7, with 0.03 mg DOTAP): 86 µg | % encapsulation ([1]; pH 8, with 0.03 mg DOTAP): 42% | Encapsulated is RNA ([1]; pH 8, with 0.03 mg DOTAP): 84 µg | % encapsulation ([1]; pH 9, with 0.03 mg DOTAP): 24% | Encapsulated is RNA ([1]; pH 9, with 0.03 mg DOTAP): 48 µg | % encapsulation ([1]; pH 9, without DOTAP): 9% | Encapsulated is RNA ([1]; pH 9, without DOTAP): 18 µg | integrity of siRNA encapsulated in the primal HSA NSs or secondary NCs [2]: stayed intact | integrity of free siRNA in the presence of the cross linker (glutaraldehyde) [3]: highly sensitive | melting temperature, or Tm (50% of siRNA strands denatured) [4]: 78 °C

EGFR-siRNA: Anti Epidermal Growth Factor Receptor siRNA, 21 bp, MW 13,400 Da, SEQ ID NO: 1 and 2, purchased from Ambion (chain 1 CCAUAAAUGCUACGAAUAUTT; chain 2 AUAUUCGUAGCAUUUAUGGAG; a few LNA modifications, positions not given here, lowercase DNA)
melting temperature, or Tm (50% of siRNA strands denatured) [4]: 72 °C

Chol-GFP-siRNA: Cholesterol modified GFP-siRNA, 21 bp, MW 15,079 Da, SEQ ID NO: 7 and 8, provided by Roche (chain 1 AUAUCAUGGCCGACAAGCATT; chain 2 UGCUUGUCGGCCAUGAUAUTT; 5' cholesteryl, chemistry not fully specified)
% encapsulation ([1]; pH 7, with 0.03 mg DOTAP): 39% | Encapsulated is RNA ([1]; pH 7, with 0.03 mg DOTAP): 76 µg | % encapsulation ([1]; pH 8, with 0.03 mg DOTAP): 40% | Encapsulated is RNA ([1]; pH 8, with 0.03 mg DOTAP): 80 µg | % encapsulation ([1]; pH 9, with 0.03 mg DOTAP): 26% | Encapsulated is RNA ([1]; pH 9, with 0.03 mg DOTAP): 52 µg | % encapsulation ([1]; pH 9, without DOTAP): 16% | Encapsulated is RNA ([1]; pH 9, without DOTAP): 32 µg | integrity of siRNA encapsulated in the primal HSA NSs or secondary NCs [2]: stayed intact | integrity of free siRNA at basic pH ([3]; 3 hr in aqueous solutions of pH 7, 8 or 9, without glutaraldehyde): improved resistant to basic pH (8 and 9) compared to GFP-siRNA | integrity of free siRNA in the presence of the cross linker (glutaraldehyde) [3]: highly sensitive | melting temperature, or Tm (50% of siRNA strands denatured) [4]: 77 °C
